Experiments:
[1] = system: Staphylococcus aureus ATCC 29213; assay: MIC, broth microdilution (CLSI), S. aureus; format: cell-based; details: lowest concentration inhibiting visual growth
Protocol: (§1) The compounds of Formulas 1-VIII were evaluated as inhibitors of NAD+-dependent DNA ligase inhibitors. Their antimicrobial activity was evaluated against bacteria using the broth microdilution method as described by Clinical Laboratory Standards Institute (formerly NCCLS). Activity was assessed against the following bacterial strains: Staphylococcus aureus ATCC 29213, Streptococcus pneumoniae ATCC 49619, Escherichia coli ATCC 25922, E. coli CGSC 5633 (ToIC mutant), Haemophilus influenzae ATCC 49766, Streptococcus pyogenes ATCC 19615, Moraxella catterhalis ATCC 25238, Enterococcus faecalis ATCC 29212. The lowest concentration of compound which inhibited visual growth of each bacterium, the minimum inhibitory concentration (MIC), was determined.

[2] = system: Streptococcus pneumoniae ATCC 49619; assay: MIC, broth microdilution (CLSI), S. pneumoniae; format: cell-based
Protocol: as §1

[3] = system: Escherichia coli ATCC 25922; assay: MIC, broth microdilution (CLSI), E. coli ATCC 25922; format: cell-based
Protocol: as §1

[4] = system: E. coli CGSC 5633 (ToIC mutant); assay: MIC, broth microdilution (CLSI), E. coli CGSC 5633; format: cell-based, Escherichia coli; set-up: unit not given beside the values
Protocol: as §1

[5] = system: Enterococcus faecalis ATCC 29212; assay: MIC, broth microdilution (CLSI), E. faecalis; format: cell-based; set-up: unit not given here
Protocol: as §1

[6] = system: Haemophilus influenzae ATCC 49766; assay: MIC, broth microdilution (CLSI), H. influenzae; format: cell-based; set-up: unit not given beside the values
Protocol: as §1

[7] = system: Moraxella catterhalis ATCC 25238; assay: MIC, broth microdilution (CLSI), M. catarrhalis; format: cell-based
Protocol: as §1

[8] = system: Streptococcus pyogenes ATCC 19615; assay: MIC, broth microdilution (CLSI), S. pyogenes; format: cell-based
Protocol: as §1

[9] = Acute toxicity, Alamar blue cell viability, HepG2; format: cell-based; details: human
Protocol: (§2) Acute toxicity was assessed against two mammalian cell lines, HepG2 (human hepatocyte) and NIH 3T3 (mouse fibroblast). Cell viability was measured by an in vitro assay using Alamar blue. The concentration of compound which inhibited 50% of the cell growth (LC50) was determined.

[10] = Acute toxicity, Alamar blue cell viability, NIH 3T3; format: cell-based; details: mouse
Protocol: as §2

## COc1cc(CN(C)c2nc3nc(N)nc(N)c3c(C)c2Cc2ccccc2)cc(OC)c1 [II-a, 2,4-diamino-5-methyl-6-benzyl-7-[(3,5-dimethoxybenzyl)methylamino]-pyrido[2,3-d]pyrimidine]
[1]
  MIC S. aureus ATCC 29213: 4
[2]
  MIC S. pneumoniae: 0.125
[3]
  MIC E. coli ATCC 25922: >128
[4]
  MIC E. coli CGSC 5633: <0.125
[5]
  MIC E. faecalis: <0.125
[6]
  MIC H. influenzae: >128
[7]
  MIC M. catarrhalis: 4
[8]
  MIC S. pyogenes: 4
[9]
  CC50: 12.8 µM
[10]
  CC50: 5.57 µM

## CCCCc1c(NCc2ccc(F)c(F)c2)nc2nc(N)nc(N)c2c1C [II-d]
[1]
  MIC S. aureus ATCC 29213: 4
[2]
  MIC S. pneumoniae: 1
[3]
  MIC E. coli ATCC 25922: 32
[4]
  MIC E. coli CGSC 5633: <0.125
[5]
  MIC E. faecalis: 2
[6]
  MIC H. influenzae: 16
[7]
  MIC M. catarrhalis: 2
[8]
  MIC S. pyogenes: 2
[9]
  CC50: 17.2 µM
[10]
  CC50: 5.16 µM

## Cc1c(C(C)C)c(NCc2cc(F)cc(C(F)(F)F)c2)nc2nc(N)nc(N)c12 [II-f]
[1]
  MIC S. aureus ATCC 29213: 8
[2]
  MIC S. pneumoniae: 8
[3]
  MIC E. coli ATCC 25922: 128
[5]
  MIC E. faecalis: 2
[6]
  MIC H. influenzae: 32
[7]
  MIC M. catarrhalis: 4
[8]
  MIC S. pyogenes: 8

## Cc1c(C2CCCC2)c(NCc2ccc(F)c(F)c2)nc2nc(N)nc(N)c12 [II-g]
[1]
  MIC S. aureus ATCC 29213: 4
[2]
  MIC S. pneumoniae: 4
[3]
  MIC E. coli ATCC 25922: >128
[4]
  MIC E. coli CGSC 5633: 2
[5]
  MIC E. faecalis: 4
[6]
  MIC H. influenzae: 16
[7]
  MIC M. catarrhalis: 1
[8]
  MIC S. pyogenes: 4
[9]
  CC50: 16.4 µM
[10]
  CC50: 2.67 µM

## COc1cc(CN(C)c2nc3nc(N)nc(N)c3c(C)c2C2CCCC2)cc(OC)c1 [II-h]
[1]
  MIC S. aureus ATCC 29213: 4
[2]
  MIC S. pneumoniae: 0.5
[3]
  MIC E. coli ATCC 25922: 32
[4]
  MIC E. coli CGSC 5633: <0.125
[5]
  MIC E. faecalis: <0.125
[6]
  MIC H. influenzae: 4
[7]
  MIC M. catarrhalis: 1
[8]
  MIC S. pyogenes: 1
[9]
  CC50: 17.5 µM
[10]
  CC50: 3.26 µM

## Cc1cc(NCc2ccc(F)cc2)nc2nc(N)nc(N)c12 [III-a]
[1]
  MIC S. aureus ATCC 29213: 32
[2]
  MIC S. pneumoniae: 64
[3]
  MIC E. coli ATCC 25922: 32
[4]
  MIC E. coli CGSC 5633: 0.25
[5]
  MIC E. faecalis: 4
[6]
  MIC H. influenzae: 2
[7]
  MIC M. catarrhalis: 8
[8]
  MIC S. pyogenes: 2
[9]
  CC50: 24 µM
[10]
  CC50: 8.14 µM

## Cc1cc(NCc2cc(F)cc(C(F)(F)F)c2)nc2nc(N)nc(N)c12 [III-b, 2,4-diamino-5-methyl-7-[(3-fluoro-5-trifluoromethylbenzyl)amino]-pyrido[2,3-d]pyrimidine]
[1]
  MIC S. aureus ATCC 29213: 16
[2]
  MIC S. pneumoniae: 1
[3]
  MIC E. coli ATCC 25922: 16
[4]
  MIC E. coli CGSC 5633: <0.125
[5]
  MIC E. faecalis: 0.5
[6]
  MIC H. influenzae: 32
[7]
  MIC M. catarrhalis: 8
[8]
  MIC S. pyogenes: 4
[9]
  CC50: 20.9 µM
[10]
  CC50: 8.34 µM

## Cc1cc(NCc2ccc(C(F)(F)F)cc2)nc2nc(N)nc(N)c12 [III-c]
[1]
  MIC S. aureus ATCC 29213: 16
[2]
  MIC S. pneumoniae: 4
[3]
  MIC E. coli ATCC 25922: 16
[4]
  MIC E. coli CGSC 5633: 0.25
[5]
  MIC E. faecalis: 4
[6]
  MIC H. influenzae: 16
[7]
  MIC M. catarrhalis: 8
[8]
  MIC S. pyogenes: 4
[9]
  CC50: 22.8 µM
[10]
  CC50: 11.2 µM

## Cc1cc(NCc2cc(C(F)(F)F)cc(C(F)(F)F)c2)nc2nc(N)nc(N)c12 [III-d]
[1]
  MIC S. aureus ATCC 29213: 16
[2]
  MIC S. pneumoniae: 2
[3]
  MIC E. coli ATCC 25922: 16
[4]
  MIC E. coli CGSC 5633: 1
[5]
  MIC E. faecalis: 1
[6]
  MIC H. influenzae: 16
[7]
  MIC M. catarrhalis: 4
[8]
  MIC S. pyogenes: 2
[9]
  CC50: 19.5 µM
[10]
  CC50: 7.72 µM

## Cc1cc(NCc2ccc(Cl)c(C(F)(F)F)c2)nc2nc(N)nc(N)c12 [III-f]
[1]
  MIC S. aureus ATCC 29213: 8
[2]
  MIC S. pneumoniae: 1
[3]
  MIC E. coli ATCC 25922: 16
[4]
  MIC E. coli CGSC 5633: <0.125
[5]
  MIC E. faecalis: 1
[6]
  MIC H. influenzae: 16
[7]
  MIC M. catarrhalis: 2
[8]
  MIC S. pyogenes: 2
[9]
  CC50: 15.2 µM
[10]
  CC50: 8.32 µM

## Cc1cc(NCc2cccc(C(F)(F)F)c2F)nc2nc(N)nc(N)c12 [III-g]
[1]
  MIC S. aureus ATCC 29213: 16
[2]
  MIC S. pneumoniae: 2
[3]
  MIC E. coli ATCC 25922: 16
[4]
  MIC E. coli CGSC 5633: 0.5
[5]
  MIC E. faecalis: 2
[6]
  MIC H. influenzae: 32
[7]
  MIC M. catarrhalis: 4
[8]
  MIC S. pyogenes: 4

## Cc1cc(NCc2ccc(C(F)(F)F)cc2F)nc2nc(N)nc(N)c12 [III-h]
[1]
  MIC S. aureus ATCC 29213: 16
[2]
  MIC S. pneumoniae: 4
[3]
  MIC E. coli ATCC 25922: 16
[4]
  MIC E. coli CGSC 5633: 0.5
[5]
  MIC E. faecalis: 4
[6]
  MIC H. influenzae: 16
[7]
  MIC M. catarrhalis: 4
[8]
  MIC S. pyogenes: 4

## Cc1cc(NCc2ccc(F)cc2C(F)(F)F)nc2nc(N)nc(N)c12 [III-j]
[1]
  MIC S. aureus ATCC 29213: 16
[2]
  MIC S. pneumoniae: 1
[3]
  MIC E. coli ATCC 25922: 32
[4]
  MIC E. coli CGSC 5633: 0.25
[5]
  MIC E. faecalis: 1
[6]
  MIC H. influenzae: 16
[7]
  MIC M. catarrhalis: 4
[8]
  MIC S. pyogenes: 4

## Cc1cc(NCc2cc(C(F)(F)F)ccc2F)nc2nc(N)nc(N)c12 [III-k]
[1]
  MIC S. aureus ATCC 29213: 16
[2]
  MIC S. pneumoniae: 2
[3]
  MIC E. coli ATCC 25922: 32
[5]
  MIC E. faecalis: 0.5
[6]
  MIC H. influenzae: 32
[7]
  MIC M. catarrhalis: 16
[8]
  MIC S. pyogenes: 16

## Cc1cc(NCc2ccc3c(c2)OCO3)nc2nc(N)nc(N)c12 [III-m]
[1]
  MIC S. aureus ATCC 29213: 64
[2]
  MIC S. pneumoniae: 2
[3]
  MIC E. coli ATCC 25922: 64
[4]
  MIC E. coli CGSC 5633: 0.5
[5]
  MIC E. faecalis: 2
[6]
  MIC H. influenzae: 8
[7]
  MIC M. catarrhalis: 16
[8]
  MIC S. pyogenes: 8

## COc1ccc(CN(C)c2cc(C)c3c(N)nc(N)nc3n2)cc1OC [IV-b]
[1]
  MIC S. aureus ATCC 29213: 64
[2]
  MIC S. pneumoniae: 2
[3]
  MIC E. coli ATCC 25922: 64
[4]
  MIC E. coli CGSC 5633: 0.125
[6]
  MIC H. influenzae: 16
[7]
  MIC M. catarrhalis: 8
[9]
  CC50: > 28.2 µM
[10]
  CC50: 13.2 µM

## COc1cc(CN(C)c2cc(C)c3c(N)nc(N)nc3n2)cc(OC)c1 [IV-c]
[1]
  MIC S. aureus ATCC 29213: 32
[2]
  MIC S. pneumoniae: 0.5
[3]
  MIC E. coli ATCC 25922: 16
[4]
  MIC E. coli CGSC 5633: <0.125
[5]
  MIC E. faecalis: 0.5
[6]
  MIC H. influenzae: 32
[7]
  MIC M. catarrhalis: 1
[8]
  MIC S. pyogenes: 8
[9]
  CC50: 37.4 µM
[10]
  CC50: 14.6 µM

## Nc1nc(N)c2c3c(c(N4Cc5ccccc5C4)nc2n1)CCCC3 [VII-c]
[1]
  MIC S. aureus ATCC 29213: 16
[2]
  MIC S. pneumoniae: 8
[3]
  MIC E. coli ATCC 25922: >128
[5]
  MIC E. faecalis: 1
[6]
  MIC H. influenzae: >128
[7]
  MIC M. catarrhalis: 4
[8]
  MIC S. pyogenes: 16

## Nc1nc(N)c2c3c(c(NCc4cc(F)cc(F)c4)nc2n1)CCCC3 [VII-d]
[1]
  MIC S. aureus ATCC 29213: 32
[2]
  MIC S. pneumoniae: 8
[3]
  MIC E. coli ATCC 25922: 64
[5]
  MIC E. faecalis: 8
[6]
  MIC H. influenzae: 32
[7]
  MIC M. catarrhalis: 16
[8]
  MIC S. pyogenes: 8

## COc1cc(CN(C)c2nc3nc(N)nc(N)c3c3c2CCCC3)cc(OC)c1 [VII-e]
[1]
  MIC S. aureus ATCC 29213: 32
[2]
  MIC S. pneumoniae: 0.5
[3]
  MIC E. coli ATCC 25922: 64
[4]
  MIC E. coli CGSC 5633: 1
[5]
  MIC E. faecalis: <0.1250
[6]
  MIC H. influenzae: 16
[7]
  MIC M. catarrhalis: 4
[8]
  MIC S. pyogenes: 2

Source: patent US20070082920A1, “NAD+-dependent DNA ligase inhibitors” (priority 2005, published 2007)
